Measured values from ChEMBL document CHEMBL5724914, “Linking interpersonal differences in gut microbiota composition and drug biotransformation activity” (2024).
Values belong to the molecule of their own block, whether it stands above or below them.

Legend:
[1] = The drug is tested on Z-017 corresponding to mouse gut metagenome with ENA study accession number: PRJEB37062 and ENA sample accession number: ERS12561816 for biotransformation under anaerobic condition. The drug concentrations were measured over 9 timepoints collected between 0 and 24 hours of incubation by liquid-chromatography-coupled mass spectrometry (LC–MS); settings: 2 µM
[2] = human gut metagenome, 24 h, 2 µM
[3] = The drug is tested on Z-027 corresponding to metagenome with ENA study accession number: PRJEB37062 and ENA sample accession number: ERS12561826 for biotransformation under anaerobic condition. The drug concentrations were measured over 9 timepoints collected between 0 and 24 hours of incubation by liquid-chromatography-coupled mass spectrometry (LC–MS); settings: 2 µM
[4] = The drug is tested on Z-025 corresponding to rabbit gut metagenome with ENA study accession number: PRJEB37062 and ENA sample accession number: ERS12561824 for biotransformation under anaerobic condition. The drug concentrations were measured over 9 timepoints collected between 0 and 24 hours of incubation by liquid-chromatography-coupled mass spectrometry (LC–MS); settings: 2 µM
[5] = The drug is tested on Z-028 corresponding to mouse gut metagenome with ENA study accession number: PRJEB37062 and ENA sample accession number: ERS12561827 for biotransformation under anaerobic condition. The drug concentrations were measured over 9 timepoints collected between 0 and 24 hours of incubation by liquid-chromatography-coupled mass spectrometry (LC–MS); settings: 2 µM
[6] = human gut metagenome, 24 h, 2 µM; remark: listed apart in the source
[7] = The drug is tested on Z-007 corresponding to rat gut metagenome with ENA study accession number: PRJEB37062 and ENA sample accession number: ERS12561807 for biotransformation under anaerobic condition. The drug concentrations were measured over 9 timepoints collected between 0 and 24 hours of incubation by liquid-chromatography-coupled mass spectrometry (LC–MS); settings: 2 µM
[8] = The drug is tested on Z-020 corresponding to rabbit gut metagenome with ENA study accession number: PRJEB37062 and ENA sample accession number: ERS12561819 for biotransformation under anaerobic condition. The drug concentrations were measured over 9 timepoints collected between 0 and 24 hours of incubation by liquid-chromatography-coupled mass spectrometry (LC–MS); settings: 2 µM
[9] = The drug is tested on Z-019 corresponding to rat gut metagenome with ENA study accession number: PRJEB37062 and ENA sample accession number: ERS12561818 for biotransformation under anaerobic condition. The drug concentrations were measured over 9 timepoints collected between 0 and 24 hours of incubation by liquid-chromatography-coupled mass spectrometry (LC–MS); settings: 2 µM
[10] = The drug is tested on WLS-086 corresponding to human gut metagenome with ENA study accession number: PRJEB37062 and ENA sample accession number: ERS12561752 for biotransformation under anaerobic condition. The drug concentrations were measured over 9 timepoints collected between 0 and 24 hours of incubation by liquid-chromatography-coupled mass spectrometry (LC–MS); settings: 2 µM
[11] = The drug is tested on WLS-350 corresponding to human gut metagenome with ENA study accession number: PRJEB37062 and ENA sample accession number: ERS12561789 for biotransformation under anaerobic condition. The drug concentrations were measured over 9 timepoints collected between 0 and 24 hours of incubation by liquid-chromatography-coupled mass spectrometry (LC–MS); settings: 2 µM
[12] = The drug is tested on Z-009 corresponding to pig gut metagenome with ENA study accession number: PRJEB37062 and ENA sample accession number: ERS12561809 for biotransformation under anaerobic condition. The drug concentrations were measured over 9 timepoints collected between 0 and 24 hours of incubation by liquid-chromatography-coupled mass spectrometry (LC–MS); settings: 2 µM
[13] = human gut metagenome, 24 h, 2 µM; remark: listed apart in the source
[14] = human gut metagenome, 24 h, 2 µM; remark: listed apart in the source
[15] = human gut metagenome, 24 h, 2 µM; remark: listed apart in the source
[16] = human gut metagenome, 24 h, 2 µM; remark: listed apart in the source
[17] = The drug is tested on WLS-073 corresponding to human gut metagenome with ENA study accession number: PRJEB37062 and ENA sample accession number: ERS12561749 for biotransformation under anaerobic condition. The drug concentrations were measured over 9 timepoints collected between 0 and 24 hours of incubation by liquid-chromatography-coupled mass spectrometry (LC–MS); settings: 2 µM
[18] = human gut metagenome, 24 h, 2 µM; remark: listed apart in the source
[19] = The drug is tested on Z-006 corresponding to mouse gut metagenome with ENA study accession number: PRJEB37062 and ENA sample accession number: ERS12561806 for biotransformation under anaerobic condition. The drug concentrations were measured over 9 timepoints collected between 0 and 24 hours of incubation by liquid-chromatography-coupled mass spectrometry (LC–MS); settings: 2 µM
[20] = The drug is tested on Z-005 corresponding to metagenome with ENA study accession number: PRJEB37062 and ENA sample accession number: ERS12561805 for biotransformation under anaerobic condition. The drug concentrations were measured over 9 timepoints collected between 0 and 24 hours of incubation by liquid-chromatography-coupled mass spectrometry (LC–MS); settings: 2 µM
Note: call rule not given here.

SMILES: CC(=O)OCC(=O)[C@@]1(OC(C)=O)[C@@H](C)C[C@H]2[C@@H]3C[C@H](F)C4=CC(=O)C=C[C@]4(C)[C@@]3(F)[C@@H](O)C[C@@]21C [DIFLORASONE DIACETATE]
- Bacterial Biotransformation [1]: Compound metabolized
- Bacterial Biotransformation [2]: Compound metabolized
- Bacterial Biotransformation [3]: Compound NOT metabolized
- Bacterial Biotransformation [4]: Compound NOT metabolized
- Bacterial Biotransformation [5]: Compound metabolized
- Bacterial Biotransformation [6]: Compound metabolized
- Bacterial Biotransformation [7]: Compound NOT metabolized
- Bacterial Biotransformation [8]: Compound metabolized
- Bacterial Biotransformation [9]: Compound NOT metabolized
- Bacterial Biotransformation [10]: Compound metabolized
- Bacterial Biotransformation [11]: Compound metabolized
- Bacterial Biotransformation [12]: Compound metabolized
- Bacterial Biotransformation [13]: Compound metabolized
- Bacterial Biotransformation [14]: Compound metabolized
- Bacterial Biotransformation [15]: Compound metabolized
- Bacterial Biotransformation [16]: Compound metabolized
- Bacterial Biotransformation [17]: Compound metabolized
- Bacterial Biotransformation [18]: Compound metabolized
- Bacterial Biotransformation [19]: Compound metabolized
- Bacterial Biotransformation [20]: Compound metabolized

SMILES: CN1CCC(OC(c2ccccc2)c2ccccc2)CC1
- Bacterial Biotransformation [1]: Compound NOT metabolized
- Bacterial Biotransformation [2]: Compound metabolized
- Bacterial Biotransformation [3]: Compound NOT metabolized
- Bacterial Biotransformation [4]: Compound metabolized
- Bacterial Biotransformation [5]: Compound NOT metabolized
- Bacterial Biotransformation [6]: Compound NOT metabolized
- Bacterial Biotransformation [7]: Compound NOT metabolized
- Bacterial Biotransformation [8]: Compound NOT metabolized
- Bacterial Biotransformation [9]: Compound NOT metabolized
- Bacterial Biotransformation [10]: Compound metabolized
- Bacterial Biotransformation [11]: Compound NOT metabolized
- Bacterial Biotransformation [12]: Compound NOT metabolized
- Bacterial Biotransformation [13]: Compound metabolized
- Bacterial Biotransformation [14]: Compound NOT metabolized
- Bacterial Biotransformation [15]: Compound NOT metabolized
- Bacterial Biotransformation [16]: Compound NOT metabolized
- Bacterial Biotransformation [17]: Compound NOT metabolized
- Bacterial Biotransformation [18]: Compound NOT metabolized
- Bacterial Biotransformation [19]: Compound NOT metabolized
- Bacterial Biotransformation [20]: Compound NOT metabolized

SMILES: COc1ccc(/C=C/C(=O)Nc2ccccc2C(=O)O)cc1OC
- Bacterial Biotransformation [1]: Compound NOT metabolized
- Bacterial Biotransformation [2]: Compound NOT metabolized
- Bacterial Biotransformation [3]: Compound metabolized
- Bacterial Biotransformation [4]: Compound metabolized
- Bacterial Biotransformation [5]: Compound NOT metabolized
- Bacterial Biotransformation [6]: Compound NOT metabolized
- Bacterial Biotransformation [7]: Compound NOT metabolized
- Bacterial Biotransformation [8]: Compound metabolized
- Bacterial Biotransformation [9]: Compound NOT metabolized
- Bacterial Biotransformation [10]: Compound NOT metabolized
- Bacterial Biotransformation [11]: Compound NOT metabolized
- Bacterial Biotransformation [12]: Compound metabolized
- Bacterial Biotransformation [13]: Compound NOT metabolized
- Bacterial Biotransformation [14]: Compound NOT metabolized
- Bacterial Biotransformation [15]: Compound NOT metabolized
- Bacterial Biotransformation [16]: Compound NOT metabolized
- Bacterial Biotransformation [17]: Compound metabolized
- Bacterial Biotransformation [19]: Compound NOT metabolized
- Bacterial Biotransformation [20]: Compound metabolized

Second part, the molecule after the results:

- Bacterial Biotransformation [1]: Compound NOT metabolized
- Bacterial Biotransformation [2]: Compound metabolized
- Bacterial Biotransformation [3]: Compound NOT metabolized
- Bacterial Biotransformation [4]: Compound NOT metabolized
- Bacterial Biotransformation [5]: Compound NOT metabolized
- Bacterial Biotransformation [6]: Compound NOT metabolized
- Bacterial Biotransformation [7]: Compound NOT metabolized
- Bacterial Biotransformation [8]: Compound NOT metabolized
- Bacterial Biotransformation [9]: Compound NOT metabolized
- Bacterial Biotransformation [10]: Compound metabolized
- Bacterial Biotransformation [11]: Compound NOT metabolized
- Bacterial Biotransformation [12]: Compound NOT metabolized
- Bacterial Biotransformation [13]: Compound NOT metabolized
- Bacterial Biotransformation [14]: Compound NOT metabolized
- Bacterial Biotransformation [15]: Compound NOT metabolized
- Bacterial Biotransformation [16]: Compound metabolized
- Bacterial Biotransformation [17]: Compound metabolized
- Bacterial Biotransformation [18]: Compound metabolized
- Bacterial Biotransformation [19]: Compound NOT metabolized
- Bacterial Biotransformation [20]: Compound NOT metabolized
SMILES: C=CC[C@@H]1/C=C(\C)C[C@H](C)C[C@H](OC)[C@H]2O[C@@](O)(C(=O)C(=O)N3CCCC[C@H]3C(=O)O[C@H](/C(C)=C/[C@@H]3CC[C@@H](O)[C@H](OC)C3)[C@H](C)[C@@H](O)CC1=O)[C@H](C)C[C@@H]2OC.O [TACROLIMUS]

- Bacterial Biotransformation [1]: Compound NOT metabolized
- Bacterial Biotransformation [2]: Compound NOT metabolized
- Bacterial Biotransformation [3]: Compound NOT metabolized
- Bacterial Biotransformation [4]: Compound NOT metabolized
- Bacterial Biotransformation [5]: Compound NOT metabolized
- Bacterial Biotransformation [6]: Compound metabolized
- Bacterial Biotransformation [7]: Compound NOT metabolized
- Bacterial Biotransformation [8]: Compound NOT metabolized
- Bacterial Biotransformation [9]: Compound NOT metabolized
- Bacterial Biotransformation [10]: Compound metabolized
- Bacterial Biotransformation [11]: Compound metabolized
- Bacterial Biotransformation [12]: Compound NOT metabolized
- Bacterial Biotransformation [13]: Compound metabolized
- Bacterial Biotransformation [14]: Compound metabolized
- Bacterial Biotransformation [15]: Compound NOT metabolized
- Bacterial Biotransformation [16]: Compound NOT metabolized
- Bacterial Biotransformation [17]: Compound NOT metabolized
- Bacterial Biotransformation [18]: Compound metabolized
- Bacterial Biotransformation [19]: Compound NOT metabolized
- Bacterial Biotransformation [20]: Compound NOT metabolized
SMILES: O=C1N=C([O-])NC1(c1ccccc1)c1ccccc1.[Na+] [PHENYTOIN SODIUM]
